Legend:
[1] = molecular target: T1, Angiotensin II receptor (Rattus norvegicus, UniProt P29089+P25095+P35351); assay: Tested for in vitro binding affinity against angiotensin II receptor of rat liver
T1 sequence (P29089 whole entry): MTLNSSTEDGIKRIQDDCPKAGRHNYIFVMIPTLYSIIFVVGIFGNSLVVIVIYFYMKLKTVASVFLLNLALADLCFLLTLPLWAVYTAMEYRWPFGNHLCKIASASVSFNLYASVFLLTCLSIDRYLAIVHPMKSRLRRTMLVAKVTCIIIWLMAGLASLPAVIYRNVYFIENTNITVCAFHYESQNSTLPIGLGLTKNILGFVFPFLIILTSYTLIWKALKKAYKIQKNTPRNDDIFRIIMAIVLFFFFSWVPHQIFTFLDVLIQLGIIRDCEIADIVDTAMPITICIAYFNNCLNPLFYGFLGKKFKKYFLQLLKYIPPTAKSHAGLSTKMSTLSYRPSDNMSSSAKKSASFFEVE
T1 sequence (P25095 whole entry): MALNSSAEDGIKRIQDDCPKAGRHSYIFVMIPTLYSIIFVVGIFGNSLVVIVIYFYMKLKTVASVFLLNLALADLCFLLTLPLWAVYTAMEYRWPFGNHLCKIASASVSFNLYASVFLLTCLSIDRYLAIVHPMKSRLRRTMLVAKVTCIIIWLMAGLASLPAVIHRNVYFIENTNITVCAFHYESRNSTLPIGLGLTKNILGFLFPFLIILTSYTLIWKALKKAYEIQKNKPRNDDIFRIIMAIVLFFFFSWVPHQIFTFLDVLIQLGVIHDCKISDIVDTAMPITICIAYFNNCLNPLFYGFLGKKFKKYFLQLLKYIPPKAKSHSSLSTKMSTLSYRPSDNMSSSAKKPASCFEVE
T1 sequence (P35351 whole entry): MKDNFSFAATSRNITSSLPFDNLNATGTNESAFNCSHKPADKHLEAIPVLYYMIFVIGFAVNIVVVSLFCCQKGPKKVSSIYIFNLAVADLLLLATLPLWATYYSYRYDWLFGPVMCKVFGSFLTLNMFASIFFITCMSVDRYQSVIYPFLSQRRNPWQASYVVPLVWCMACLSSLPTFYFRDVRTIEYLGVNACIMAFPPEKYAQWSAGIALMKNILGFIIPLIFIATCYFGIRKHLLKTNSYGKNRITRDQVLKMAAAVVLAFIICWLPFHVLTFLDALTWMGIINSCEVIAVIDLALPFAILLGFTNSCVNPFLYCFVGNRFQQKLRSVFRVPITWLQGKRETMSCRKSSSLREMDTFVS

[2] = test system: Rattus norvegicus; assay: […] antihypertensive activity in renal hypertensive rat at 0.5 mg/kg after 7 hr of oral administration.; format: functional
[3] = test system: Rattus norvegicus; assay: […] antihypertensive activity in renal hypertensive rat at 0.5 mg/kg after 5 hr of oral administration.; format: functional
[4] = test system: Rattus norvegicus; assay: […] antihypertensive activity in renal hypertensive rat at 0.5 mg/kg after 24 hr of oral administration.; format: functional
[5] = Bioavailability in dog (dose 3-10 mg/kg); format: ADME, organism-based, Canis lupus familiaris; conditions: in vivo
[6] = Half-life in plasma of dog at dose of […]-[…] mgkg; format: ADME, organism-based, Canis lupus familiaris
[7] = The compound was tested for volume of distribution in dog at dose of 3-10 mgkg; format: ADME, organism-based, Canis lupus familiaris; conditions: in vivo
[8] = The compound was tested for plasma clearance in dog at dose of 3-10 mgkg; format: ADME, organism-based, Canis lupus familiaris
[9] = Bioavailability in rat (dose 3-10 mg/kg); format: ADME, organism-based; conditions: in vivo
[10] = The compound was tested for volume of distribution in rat at dose of 3-10 mgkg; format: ADME, organism-based; conditions: in vivo
[11] = The compound was tested for plasma clearance in rat at dose of 3-10 mgkg; format: ADME, organism-based
[12] = Half-life in plasma of rat at dose of […]-[…] mgkg; format: ADME, organism-based
[13] = Bioavailability in rat; format: ADME, organism-based; conditions: in vivo
[14] = Half-life in plasma of rat; format: ADME, organism-based
[15] = The compound was tested for plasma clearance in rat; format: ADME, organism-based
[16] = The compound was tested for volume of distribution in rat; format: ADME, organism-based; conditions: in vivo
[17] = The compound was tested for volume of distribution in dog; format: ADME, organism-based, Canis lupus familiaris; conditions: in vivo
[18] = Half-life in plasma of dog; format: ADME, organism-based, Canis lupus familiaris
[19] = The compound was tested for plasma clearance in dog; format: ADME, organism-based, Canis lupus familiaris
[20] = test system: Rattus norvegicus; assay: In vivo antihypertensive activity in renal hypertensive rat at 1.0 mg/kg after 5 hr of oral administration.
[21] = test system: Rattus norvegicus; assay: Tested for […] antihypertensive activity in renal hypertensive rat at 1 mg/kg after 24 hr of oral administration; format: functional
[22] = test system: Rattus norvegicus; assay: Tested for […] antihypertensive activity in renal hypertensive rat at 1 mg/kg after 5 hr of oral administration; format: functional
[23] = test system: Rattus norvegicus; assay: Tested for […] antihypertensive activity in renal hypertensive rat at 1 mg/kg after 7 hr of oral administration; format: functional

Log Ki [1] | Structure (SMILES) | Activity [2] | Activity [3] | Activity [4] | further results
-8.9 | CCc1nc(C)c(C(N)=O)n1Cc1ccc2oc(-c3ccccc3NS(=O)(=O)C(F)(F)F)c(Br)c2c1 | -61 | -40 | -3 | 
-7 | CCc1nc(C2CC2)c(C(N)=O)n1Cc1ccc2oc(-c3ccccc3NS(=O)(=O)C(F)(F)F)cc2c1 | -16 | -18 | 7 | 
 | CCOC(=O)c1c(C)nc(CC)n1Cc1ccc2oc(-c3ccccc3-c3nn[nH]n3)c(Br)c2c1 |  |  |  | bioavailability [5]: 70%; half-life [6]: 0.2 h; Vd [7]: 2 L/kg; clearance [8]: ~100 mL/min/kg
-8.7 | CCNC(=O)c1c(Cl)nc(CC)n1Cc1ccc2oc(-c3ccccc3NS(=O)(=O)C(F)(F)F)c(Br)c2c1 | -43 | -37 | -12 | 
-8.5 | CCc1nc(C)c(C(=O)NC)n1Cc1ccc2oc(-c3ccccc3NS(=O)(=O)C(F)(F)F)c(Br)c2c1 | -54 | -43 | -6 | 
-9.1 | CCc1nc(CC)n(Cc2ccc3oc(-c4ccccc4NS(=O)(=O)C(F)(F)F)c(Br)c3c2)c1C(N)=O | -38 | -35 | -17 | 
-9.4 | CCc1nc(C2CC2)c(C(=O)NC)n1Cc1ccc2oc(-c3ccccc3NS(=O)(=O)C(F)(F)F)c(Br)c2c1 | -52 | -60 | -9 | 
 | CCCCc1nc(Cl)c(CO)n1Cc1ccc2oc(-c3ccccc3-c3nn[nH]n3)c(Br)c2c1 |  |  |  | bioavailability [9]: 37%; Vd [10]: 1.3 L/kg; clearance [11]: 18 mL/min/kg; half-life [12]: 1 h
-8.4 | CCc1nc(C(C)C)c(C(N)=O)n1Cc1ccc2oc(-c3ccccc3NS(=O)(=O)C(F)(F)F)c(Br)c2c1 | -22 | -21 | -13 | 
-9.4 | CCNC(=O)c1c(C2CC2)nc(CC)n1Cc1ccc2oc(-c3ccccc3-c3nn[nH]n3)c(Br)c2c1 | -9 | -8 | -1 | 
-9.1 | CCCc1nc(C)c(C(N)=O)n1Cc1ccc2oc(-c3ccccc3NS(=O)(=O)C(F)(F)F)c(Br)c2c1 | -37 | -38 | -8 | 
-9.2 | CCNC(=O)c1c(C2CC2)nc(CC)n1Cc1ccc2oc(-c3ccccc3NS(=O)(=O)C(F)(F)F)c(Br)c2c1 | -63 | -53 | -14 | 
-9 | CCCc1nc(C)c(C(=O)NC)n1Cc1ccc2oc(-c3ccccc3NS(=O)(=O)C(F)(F)F)c(Br)c2c1 | -50 | -30 | -12 | 
-8.6 | CCc1nc(C)c(C(=O)N(C)C)n1Cc1ccc2oc(-c3ccccc3NS(=O)(=O)C(F)(F)F)c(Br)c2c1 | 2 | 1 | 1 | 
-8.9 | CCNC(=O)c1c(C)nc(CC)n1Cc1ccc2oc(-c3ccccc3NS(=O)(=O)C(F)(F)F)c(Br)c2c1 | -33 | -17 | 4 | 
-8.8 | CCc1c(-c2ccccc2NS(=O)(=O)C(F)(F)F)oc2ccc(Cn3c(CC)nc(C4CC4)c3C(N)=O)cc12 | -42 | -37 | -2 | 
 | CCCCc1nc(Cl)c(C(=O)NC)n1Cc1ccc2oc(-c3ccccc3-c3nn[nH]n3)c(Br)c2c1 |  |  |  | bioavailability [5]: 36%; half-life [6]: 0.5 h; Vd [7]: 0.3 L/kg; clearance [8]: 11 mL/min/kg

Log Ki [1] | Structure (SMILES) | Activity [2] | Activity [3] | Activity [4] | further results
-9.5 | CCCc1nc(C)c(C(=O)NCC)n1Cc1ccc2oc(-c3ccccc3NS(=O)(=O)C(F)(F)F)c(Br)c2c1 | -48 | -33 | -30 | bioavailability [13]: 90%; half-life [14]: 4.5 h; clearance [15]: 29 mL/min/kg; Vd [16]: 11 L/kg
-9.3 | CCc1nc(C2CC2)c(C(N)=O)n1Cc1ccc2oc(-c3ccccc3NS(=O)(=O)C(F)(F)F)c(Br)c2c1 | -76 | -66 | -38 | Vd [17]: 0.9 L/kg; half-life [18]: 9.3 h; clearance [19]: 1.6 mL/min/kg
-7.7 | CCc1nc(CC(C)C)c(C(N)=O)n1Cc1ccc2oc(-c3ccccc3NS(=O)(=O)C(F)(F)F)c(Br)c2c1 | -19 | -4 | -8 | 
-8.6 | CCc1nc(Cl)c(C(=O)NC)n1Cc1ccc2oc(-c3ccccc3NS(=O)(=O)C(F)(F)F)c(Br)c2c1 | -31 | -30 | -4 | 
 | CCCCc1nc(Cl)c(C(=O)O)n1Cc1ccc2oc(-c3ccccc3-c3nn[nH]n3)c(Br)c2c1 [ZOLASARTAN] |  |  |  | bioavailability [5]: 9%; half-life [6]: 2.5 h; Vd [7]: 1.2 L/kg; clearance [8]: 6 mL/min/kg
-8.7 | CCCc1nc(Cl)c(C(N)=O)n1Cc1ccc2oc(-c3ccccc3NS(=O)(=O)C(F)(F)F)c(Br)c2c1 | -28 | -19 | 9 | 
-9 | CCc1nc(C2CC2)c(C(N)=O)n1Cc1ccc2oc(-c3ccccc3NS(=O)(=O)C(F)(F)F)c(C(F)(F)F)c2c1 | -49 |  | -17 | Activity [20]: -48
-9.9 | CCc1nc(C2CC2)c(C(=O)NCC(C)C)n1Cc1ccc2oc(-c3ccccc3NS(=O)(=O)C(F)(F)F)c(Br)c2c1 | -70 | -63 | -47 | 
-8.9 | CCc1nc(C2CC2)c(C(N)=O)n1Cc1ccc2oc(-c3ccccc3NS(=O)(=O)C(F)(F)F)c(Cl)c2c1 | -60 |  | -42 | Activity [20]: -57
-8.9 | CCCc1nc(Cl)c(C(=O)NC)n1Cc1ccc2oc(-c3ccccc3NS(=O)(=O)C(F)(F)F)c(Br)c2c1 | -61 | -67 | -19 | 
-8.8 | CCCCc1nc(Cl)c(C(=O)NC)n1Cc1ccc2oc(-c3ccccc3NS(=O)(=O)C(F)(F)F)c(Br)c2c1 |  |  |  | Activity [21]: 7; Activity [22]: -40; Activity [23]: -45
 | CCCCc1nc(Cl)c(CO)n1Cc1ccc(-c2ccccc2-c2nnn[nH]2)cc1 [LOSARTAN] | -41 | -30 | -36 | 
-7.5 | CNC(=O)c1c(C)nc(C)n1Cc1ccc2oc(-c3ccccc3NS(=O)(=O)C(F)(F)F)c(Br)c2c1 | 0 | 6 | -3 | 
-8.6 | CCNC(=O)c1c(C2CC2)nc(CC)n1Cc1ccc2oc(-c3ccccc3C(=O)O)c(Br)c2c1 |  |  |  | Activity [21]: 4; Activity [22]: 6; Activity [23]: 0
-8.5 | CCc1nc(Cl)c(C(N)=O)n1Cc1ccc2oc(-c3ccccc3NS(=O)(=O)C(F)(F)F)c(Br)c2c1 | -55 | -57 | -12 | 
 | CCc1nc(C)c(C(=O)O)n1Cc1ccc2oc(-c3ccccc3-c3nn[nH]n3)c(Br)c2c1 |  |  |  | bioavailability [5]: 8%; half-life [6]: 4 h; Vd [7]: 2 L/kg; clearance [8]: 6 mL/min/kg
-9 | CCCc1nc(Cl)c(C(=O)NCC)n1Cc1ccc2oc(-c3ccccc3NS(=O)(=O)C(F)(F)F)c(Br)c2c1 | -54 | -40 | -13 | 

Reference: ChEMBL document CHEMBL1127854, “Bromobenzofuran-based non-peptide antagonists of angiotensin II: GR138950, a potent antihypertensive agent with high oral bioavailability” (J Med Chem, 1994)
